Data taken from patent publication EP2424865B1 (Boehringer Ingelheim International GmbH, priority 2009, dated 2010).

Legend:
[1] = biological target: human recombinant cytochrome P450 3A4 (Homo sapiens, UniProt P08684)
[2] = biological target: human recombinant cytochrome P450 2C19 (Homo sapiens, UniProt P33261); test: Biological Test Example 8: CYP2C19 inhibition ([N-methyl-14C]-Diazepam N-demethylation)
[3] = biological target: human recombinant cytochrome P450 2C9 (Homo sapiens, UniProt P11712); test: Biological Test Example 7: CYP2C9 inhibition ([O-methyl-14C]-Naproxen O-demethylation)
human recombinant cytochrome P450 2C9, sequence (P11712 whole entry): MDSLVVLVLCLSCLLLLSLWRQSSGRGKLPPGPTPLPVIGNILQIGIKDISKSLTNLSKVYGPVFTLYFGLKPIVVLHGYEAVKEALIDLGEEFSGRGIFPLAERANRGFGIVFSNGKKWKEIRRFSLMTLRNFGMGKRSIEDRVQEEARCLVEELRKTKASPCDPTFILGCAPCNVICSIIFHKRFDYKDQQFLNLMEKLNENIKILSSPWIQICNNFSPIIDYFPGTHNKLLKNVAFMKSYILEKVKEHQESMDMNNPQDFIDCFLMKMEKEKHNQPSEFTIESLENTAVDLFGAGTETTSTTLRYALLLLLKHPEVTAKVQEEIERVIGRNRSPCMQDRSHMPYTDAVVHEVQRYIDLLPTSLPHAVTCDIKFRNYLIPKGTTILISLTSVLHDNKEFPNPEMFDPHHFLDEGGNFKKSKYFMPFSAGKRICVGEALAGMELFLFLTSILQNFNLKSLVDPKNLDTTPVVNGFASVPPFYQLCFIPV

Plasma protein = test: Biological Test Example 5: fraction unbound in human plasma (equilibrium dialysis); type: in vitro ADME

human recombinant cytochrome P450 2C19, sequence (P33261 whole entry): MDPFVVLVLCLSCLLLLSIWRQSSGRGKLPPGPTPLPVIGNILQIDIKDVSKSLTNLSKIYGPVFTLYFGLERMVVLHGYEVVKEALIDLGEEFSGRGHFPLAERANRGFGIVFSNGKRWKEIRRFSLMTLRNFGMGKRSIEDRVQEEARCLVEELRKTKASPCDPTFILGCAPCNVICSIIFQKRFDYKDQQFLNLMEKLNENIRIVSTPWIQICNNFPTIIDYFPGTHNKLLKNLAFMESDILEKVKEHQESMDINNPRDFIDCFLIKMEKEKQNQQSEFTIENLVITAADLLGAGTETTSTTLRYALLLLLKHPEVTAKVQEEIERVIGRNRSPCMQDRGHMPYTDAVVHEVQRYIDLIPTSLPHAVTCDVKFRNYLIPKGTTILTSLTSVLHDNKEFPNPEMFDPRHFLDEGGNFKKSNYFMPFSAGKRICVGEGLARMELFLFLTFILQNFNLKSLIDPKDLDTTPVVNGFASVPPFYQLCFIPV
human recombinant cytochrome P450 3A4, sequence (P08684 whole entry): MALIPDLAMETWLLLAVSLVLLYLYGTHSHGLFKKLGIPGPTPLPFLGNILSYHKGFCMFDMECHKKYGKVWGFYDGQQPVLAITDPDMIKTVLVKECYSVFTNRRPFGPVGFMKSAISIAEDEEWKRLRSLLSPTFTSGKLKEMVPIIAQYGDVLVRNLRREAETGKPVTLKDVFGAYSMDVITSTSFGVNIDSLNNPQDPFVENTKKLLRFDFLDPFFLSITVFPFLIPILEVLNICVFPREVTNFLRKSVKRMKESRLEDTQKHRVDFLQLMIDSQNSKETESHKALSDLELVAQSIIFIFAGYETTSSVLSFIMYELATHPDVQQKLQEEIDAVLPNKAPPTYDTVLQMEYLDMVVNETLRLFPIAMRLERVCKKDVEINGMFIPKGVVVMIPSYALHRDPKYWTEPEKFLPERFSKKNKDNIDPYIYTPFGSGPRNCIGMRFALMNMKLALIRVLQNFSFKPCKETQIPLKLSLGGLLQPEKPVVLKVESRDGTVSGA

| SMILES | IC50 [1] [µM] | IC50 [2] [µM] | IC50 [3] [µM] | Biological Test Example 5 (%) (Plasma protein; Examples) | Biological Test Example 5 (%) (Plasma protein; Comparator Compounds) |
| --- | --- | --- | --- | --- | --- |
| CCn1cc(-c2ccc([C@H](C)N3CC[C@](CC(C)(C)O)(c4ccccc4)OC3=O)cc2)cc(C)c1=O [Example 70, (S)-3-((S)-1-(4-(1-ethyl-5-methyl-6-oxo-1,6-dihydropyridin-3-yl)phenyl)ethyl)-6-(2-hydroxy-2-methylpropyl)-6-phenyl-1,3-oxazinan-2-one] | 28 | 23 | – | – | – |
| CCn1c(C)cc(-c2ccc([C@H](C)N3CC[C@](CC(C)(C)O)(c4ccccc4)OC3=O)cc2)cc1=O [Example 72, (S)-3-((S)-1-(4-(1-ethyl-6-methyl-2-oxo-1,2-dihydropyridin-4-yl)phenyl)ethyl)-6-(2-hydroxy-2-methylpropyl)-6-phenyl-1,3-oxazinan-2-one] | 41 | 8 | 35 | – | – |
| C[C@@H](c1ccc(-c2ccn(C3CC3)c(=O)c2)cc1)N1CC[C@](CC(C)(C)O)(c2ccccc2)OC1=O [Example 75, 3-{(S)-1-[4-(1-Cyclopropyl-2-oxo-1,2-dihydro-pyridin-4-yl)-phenyl]-ethyl}-(S)-6-(2-hydroxy-2-methyl-propyl)-6-phenyl-[1,3]oxazinan-2-one] | 23 | 24 | 19 | 15.6 | – |
| C[C@@H](c1ccc(-c2ccn(C)c(=O)c2)cc1)N1CC[C@](CC(C)(C)O)(c2ccccc2)OC1=O [Example 48, (S)-6-(2-hydroxy-2-methylpropyl)-3-((S)-1-(4-(1-methyl-2-oxo-1,2-dihydropyridin-4-yl)phenyl)ethyl)-6-phenyl-1,3-oxazinan-2-one] | – | – | – | 8.7 | – |
| Cc1cc(-c2ccc([C@H](C)N3CC[C@](CC(C)(C)O)(c4ccccc4)OC3=O)cc2)cn(C)c1=O [Example 61, (S)-3-((S)-1-(4-(1,5-dimethyl-6-oxo-1,6-dihydropyridin-3-yl)phenyl)ethyl)-6-(2-hydroxy-2-methylpropyl)-6-phenyl-1,3-oxazinan-2-one] | – | 18 | 40 | – | – |
| C[C@@H](c1ccc(-c2ccc(=O)n(C(F)F)c2)cc1)N1CC[C@](CC(C)(C)O)(c2ccccc2)OC1=O [Example 4, (S)-3-((S)-1-(4-(1-(difluoromethyl)-6-oxo-1,6-dihydropyridin-3-yl)phenyl)ethyl)-6-(2-hydroxy-2-methylpropyl)-6-phenyl-1,3-oxazinan-2-one] | 21 | – | 17 | – | – |
| CC[C@@H](c1ccc(-c2ccc(=O)n(CC)c2)cc1)N1CC[C@](CC(C)(C)O)(c2ccccc2)OC1=O [Example 52, (S)-3-((S)-1-(4-(1-ethyl-6-oxo-1,6-dihydropyridin-3-yl)phenyl)propyl)-6-(2-hydroxy-2-methylpropyl)-6-phenyl-1,3-oxazinan-2-one] | – | – | – | 9.0 | – |
| C[C@@H](c1ccc(-c2ccc(=O)n(C3CC3)c2)cc1)N1CC[C@](CC(C)(C)O)(c2ccccc2)OC1=O [Example 3, (S)-3-((S)-1-(4-(1-cyclopropyl-6-oxo-1,6-dihydropyridin-3-yl)phenyl)ethyl)-6-(2-hydroxy-2-methylpropyl)-6-phenyl-1,3-oxazinan-2-one] | 44 | – | 38 | – | 0.3 |
| CCn1cc(-c2ccc([C@H](C)N3CC[C@](CC(C)(C)O)(c4ccccc4)OC3=O)cc2)ccc1=O [Example 53, (S)-3-((S)-1-(4-(1-ethyl-6-oxo-1,6-dihydropyridin-3-yl)phenyl)ethyl)-6-(2-hydroxy-2-methylpropyl)-6-phenyl-1,3-oxazinan-2-one] | – | – | – | 12.8 | – |
| CC[C@@H](c1ccc(-c2ccc(=O)n(C)c2)cc1)N1CC[C@](CC(C)(C)O)(c2ccccc2)OC1=O [Example 54, (S)-6-(2-hydroxy-2-methylpropyl)-3-((S)-1-(4-(1-methyl-6-oxo-1,6-dihydropyridin-3-yl)phenyl)propyl)-6-phenyl-1,3-oxazinan-2-one] | – | 18 | – | 9.1 | – |
| C[C@@H](c1ccc(-c2ccc(=O)n(C)c2)cc1)N1CC[C@](CC(C)(C)C#N)(c2ccc(F)cc2)OC1=O [Example 69, 3-((R)-6-(4-fluorophenyl)-3-((S)-1-(4-(1-methyl-6-oxo-1,6-dihydropyridin-3-yl)phenyl)ethyl)-2-oxo-1,3-oxazinan-6-yl)-2,2-dimethylpropanenitrile] | 23 | – | 38 | – | – |
| C[C@@H](c1ccc(-c2ccc(=O)[nH]c2)cc1)N1CC[C@](CC(C)(C)C#N)(c2ccccc2)OC1=O [Example 71, 2,2-dimethyl-3-((R)-2-oxo-3-((S)-1-(4-(6-oxo-1,6-dihydropyridin-3-yl)phenyl)ethyl)-6-phenyl-1,3-oxazinan-6-yl)propanenitrile] | 6 | 24 | 17 | – | – |
| C[C@@H](c1ccc(-c2ccn(CCF)c(=O)c2)cc1)N1CC[C@](CC(C)(C)O)(c2ccccc2)OC1=O [Example 25, (S)-3-((S)-1-(4-(1-(2-fluoroethyl)-2-oxo-1,2-dihydropyridin-4-yl)phenyl)ethyl)-6-(2-hydroxy-2-methylpropyl)-6-phenyl-1,3-oxazinan-2-one] | 33 | – | 30 | – | – |
| CCn1cc(-c2ccc([C@H](C)N3CC[C@](CC(C)(C)O)(c4ccc(F)cc4)OC3=O)cc2)ccc1=O [Example 62, (S)-3-((S)-1-(4-(1-ethyl-6-oxo-1,6-dihydropyridin-3-yl)phenyl)ethyl)-6-(4-fluorophenyl)-6-(2-hydroxy-2-methylpropyl)-1,3-oxazinan-2-one] | 48 | 38 | – | – | – |
| CC(C)n1ccc(-c2ccc([C@H](C)N3CC[C@](CC(C)(C)O)(c4ccccc4)OC3=O)cc2)cc1=O [Example 68, (S)-6-(2-hydroxy-2-methylpropyl)-3-((S)-1-(4-(1-isopropyl-2-oxo-1,2-dihydropyridin-4-yl)phenyl)ethyl)-6-phenyl-1,3-oxazinan-2-one] | 43 | 28 | 47 | – | – |
| C[C@@H](c1ccc(-c2ccc(=O)n(C)c2)cc1)N1CC[C@](CCCO)(c2ccccc2)OC1=O [Example 30, (R)-6-(3-hydroxypropyl)-3-((S)-1-(4-(1-methyl-6-oxo-1,6-dihydropyridin-3-yl)phenyl)ethyl)-6-phenyl-1,3-oxazinan-2-one] | – | 27 | – | 13.9 | – |
| CC(C)n1cc(-c2ccc([C@H](C)N3CC[C@](CC(C)(C)O)(c4ccccc4)OC3=O)cc2)ccc1=O [Example 59, (S)-6-(2-hydroxy-2-methylpropyl)-3-((S)-1-(4-(1-isopropyl-6-oxo-1,6-dihydropyridin-3-yl)phenyl)ethyl)-6-phenyl-1,3-oxazinan-2-one] | – | 37 | – | – | – |
| C[C@@H](c1ccc(-c2cc[nH]c(=O)c2)cc1)N1CC[C@](CC(C)(C)C#N)(c2ccccc2)OC1=O [Example 14, 2,2-dimethyl-3-((R)-2-oxo-3-((S)-1-(4-(2-oxo-1,2-dihydropyridin-4-yl)phenyl)ethyl)-6-phenyl-1,3-oxazinan-6-yl)propanenitrile] | 25 | 24 | 18 | – | – |
| CC[C@@H](c1ccc(-c2ccn(C)c(=O)c2)cc1)N1CC[C@](CC)(c2ccccc2)OC1=O [Example 58, (R)-6-ethyl-3-((S)-1-(4-(1-methyl-2-oxo-1,2-dihydropyridin-4-yl)phenyl)propyl)-6-phenyl-1,3-oxazinan-2-one] | 8 | 2 | 3 | – | – |
| CCn1ccc(-c2ccc([C@H](C)N3CC[C@](CC(C)(C)O)(c4ccccc4)OC3=O)cc2)cc1=O [Example 65, (S)-3-((S)-1-(4-(1-ethyl-2-oxo-1,2-dihydropyridin-4-yl)phenyl)ethyl)-6-(2-hydroxy-2-methylpropyl)-6-phenyl-1,3-oxazinan-2-one] | > 50 | 25 | > 50 | – | – |
| C[C@@H](c1ccc(-c2ccc(=O)n(C)c2)cc1)N1CC[C@](CC(C)(C)NS(C)(=O)=O)(c2ccccc2)OC1=O [Example 11, N-(2-methyl-1-((S)-3-((S)-1-(4-(1-methyl-6-oxo-1,6-dihydropyridin-3-yl)phenyl)ethyl)-2-oxo-6-phenyl-1,3-oxazinan-6-yl)propan-2-yl)methanesulfonamide] | – | – | – | – | 0.7 |
| C[C@@H](c1ccc(-c2ccc(=O)n(CC(F)(F)F)c2)cc1)N1CC[C@](CC(C)(C)O)(c2ccccc2)OC1=O [Example 67, (S)-6-(2-hydroxy-2-methylpropyl)-3-((S)-1-(4-(6-oxo-1-(2,2,2-trifluoroethyl)-1,6-dihydropyridin-3-yl)phenyl)ethyl)-6-phenyl-1,3-oxazinan-2-one] | 28 | 34 | 41 | – | – |
| C[C@@H](c1ccc(-c2ccn(C(F)F)c(=O)c2)cc1)N1CC[C@](CC(C)(C)O)(c2ccccc2)OC1=O [Example 5, (S)-3-((S)-1-(4-(1-(difluoromethyl)-2-oxo-1,2-dihydropyridin-4-yl)phenyl)ethyl)-6-(2-hydroxy-2-methylpropyl)-6-phenyl-1,3-oxazinan-2-one] | 29 | – | – | – | – |
| Cc1cc(-c2ccc([C@H](C)N3CC[C@](CC(C)(C)O)(c4ccccc4)OC3=O)cc2)cc(=O)n1C [Example 64, (S)-3-((S)-1-(4-(1,6-dimethyl-2-oxo-1,2-dihydropyridin-4-yl)phenyl)ethyl)-6-(2-hydroxy-2-methylpropyl)-6-phenyl-1,3-oxazinan-2-one] | – | 17 | 33 | – | – |
| C[C@@H](c1ccc(-c2ccn(C3CC3)c(=O)c2)cc1)N1CC[C@](CC(C)(C)O)(c2ccccc2F)OC1=O [Example 88, (S)-3-((S)-1-(4-(1-cyclopropyl-2-oxo-1,2-dihydropyridin-4-yl)phenyl)ethyl)-6-(2-fluorophenyl)-6-(2-hydroxy-2-methylpropyl)-1,3-oxazinan-2-one] | – | – | 28 | – | – |
